The results in this text go back to patent publication US12240844B2 (Voronoi, Inc., priority 2019, dated 2025).

Common to all, as to assay type: biochemical
Experiment [1] concerns the target T1, human GST-CLK1 (129-end) (Homo sapiens, UniProt P49759).
T1 construct: purified human GST-CLK1 (129-end, Signalchem) enzyme; GST; purchased Signalchem
Kind of experiment: GST-CLK1 enzyme inhibition, ADP-Glo kinase assay. Particulars: ATP 10 uM. Here is the method: (§1) In order to evaluate the inhibitory activity of the compounds according to the present invention on LRRK2, LRRK2 (G2019S), DYRK1, CLK1 and TTK kinases, the following experiment was performed.
(§2) Example compounds were reacted with the purified human GST-CLK1 (129-end, Signalchem) enzyme to evaluate the enzyme inhibitory ability as follows. As the reaction buffer, the composition of 40 mM Tris-HCl pH 7.4, 20 mM MgCl2, 0.5 mg/mL BSA, and 50 uM DTT was used, and the reaction of all test materials was performed on the reaction buffer. During the test, the human GST-CLK1 (129-end, 3 ng) enzyme, the purified ATP (10 uM), and a specific substrate solution were reacted at 25° C. for 1 hour, and then the enzyme activity was identified using the in vitro ADP-Glo™ kinase assay (promega). Luminescence was measured by reacting the enzyme activity reaction solution, an ADP-Glo reaction solution and the enzyme potency detection solution in a ratio of 2:2:1. The degree of inhibition of enzyme activity according to the treatment concentrations of the respective compounds was calculated based on the fluorescence of the enzyme activity of a solvent control group that was not treated with the compound, where the concentration of each compound to inhibit enzyme activity inhibition by 50% was determined as an IC50 (nM) value. The IC50 of each compound was determined in triplicate data sets and obtained using Prism (version 7.01, GraphPad) software.
(§3) In the table below, the following designations were used for the evaluation of enzyme inhibitory ability.
(In general: ADP-Glo turns the ADP formed in a reaction into a luminescent signal.)

Experiment [2] addresses T2, human GST-DYRK1A (full length) (Homo sapiens, UniProt Q13627).
T2 construct: purified human GST-DYRK1A (full length, Thermo scientifics) enzyme; GST; purchased Thermo scientifics
The experiment in a line: GST-DYRK1A enzyme inhibition, ADP-Glo kinase assay. Conditions: read-out: DYRK1 IC50. Here is the method:
as §1
as §2, with “GST-DYRK1A (full length, Thermo scientifics)” for “GST-CLK1 (129-end, Signalchem)”, “GST-DYRK1A (full length, 10” for “GST-CLK1 (129-end, 3”
as §3

For experiment [3], the target named is LRRK2 (G2019S) (Homo sapiens, UniProt Q5S007, G2019S). Kind of experiment: LRRK2 G2019S enzyme inhibition, ADP-Glo kinase assay. Further details: purchased SignalChem L10-12GG. Here is the method: as §1
Example compounds were reacted with the purified human LRRK2 G2019S (L10-12GG, SignalChem) enzyme to evaluate the enzyme inhibitory ability as follows. The reaction buffer was used as the composition of 40 mM Tris-HCl pH7.4, 20 mM MgCl2, 0.5 mg/ml BSA and 50 μM DTT, and the reaction of all test materials was performed on the reaction buffer. The compound was diluted with 10 mM DMSO stock in 12 steps by a serial dilution method, and the enzyme activity was measured at the final compound concentrations of 50, 10, 2, 0.4, 0.08, 0.016, 0.0032, 0.00064, 0.000128, 0.0000256, 0.00000512 and 0.000001024 μM. In the test, the human LRRK2 G2019S (16 ng) enzyme was reacted with the purified ATP (25 μM) and an enzyme substrate (0.2 μg) at 25° C. for 2 hours, and then the enzyme activity was identified using the in vitro ADP-Glo™ kinase assay (promega). The enzyme activity reaction liquid, an ADP-Glo reaction liquid and an enzyme potency detection solution were reacted in a ratio of 2:2:1, and the degree of inhibition of enzyme activity was measured by Luminescence. The degree of inhibition of enzyme activity according to the treatment concentrations of the respective compounds was calculated based on the fluorescence of the enzyme activity of a solvent control group that was not treated with the compound, where the concentration of each compound to inhibit enzyme activity inhibition by 50% was determined as an IC50 (nM) value and obtained using Prism (Version 5.01, GraphPad) software.
as §3

SMILES strings stand for the structures. pIC50: −log10 of the molar value.

T1 sequence (P49759 129-484 limits assumed): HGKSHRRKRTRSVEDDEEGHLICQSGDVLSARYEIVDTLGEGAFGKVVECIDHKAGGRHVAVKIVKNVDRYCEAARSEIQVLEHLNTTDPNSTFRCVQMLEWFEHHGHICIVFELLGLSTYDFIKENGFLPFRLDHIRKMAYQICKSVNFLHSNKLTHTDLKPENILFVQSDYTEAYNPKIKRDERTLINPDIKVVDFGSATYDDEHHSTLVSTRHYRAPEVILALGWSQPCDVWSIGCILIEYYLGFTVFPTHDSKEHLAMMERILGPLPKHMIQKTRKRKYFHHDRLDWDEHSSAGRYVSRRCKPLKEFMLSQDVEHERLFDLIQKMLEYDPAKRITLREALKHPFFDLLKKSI
LRRK2 (G2019S), sequence (Q5S007 970-2527 G2019S limits assumed): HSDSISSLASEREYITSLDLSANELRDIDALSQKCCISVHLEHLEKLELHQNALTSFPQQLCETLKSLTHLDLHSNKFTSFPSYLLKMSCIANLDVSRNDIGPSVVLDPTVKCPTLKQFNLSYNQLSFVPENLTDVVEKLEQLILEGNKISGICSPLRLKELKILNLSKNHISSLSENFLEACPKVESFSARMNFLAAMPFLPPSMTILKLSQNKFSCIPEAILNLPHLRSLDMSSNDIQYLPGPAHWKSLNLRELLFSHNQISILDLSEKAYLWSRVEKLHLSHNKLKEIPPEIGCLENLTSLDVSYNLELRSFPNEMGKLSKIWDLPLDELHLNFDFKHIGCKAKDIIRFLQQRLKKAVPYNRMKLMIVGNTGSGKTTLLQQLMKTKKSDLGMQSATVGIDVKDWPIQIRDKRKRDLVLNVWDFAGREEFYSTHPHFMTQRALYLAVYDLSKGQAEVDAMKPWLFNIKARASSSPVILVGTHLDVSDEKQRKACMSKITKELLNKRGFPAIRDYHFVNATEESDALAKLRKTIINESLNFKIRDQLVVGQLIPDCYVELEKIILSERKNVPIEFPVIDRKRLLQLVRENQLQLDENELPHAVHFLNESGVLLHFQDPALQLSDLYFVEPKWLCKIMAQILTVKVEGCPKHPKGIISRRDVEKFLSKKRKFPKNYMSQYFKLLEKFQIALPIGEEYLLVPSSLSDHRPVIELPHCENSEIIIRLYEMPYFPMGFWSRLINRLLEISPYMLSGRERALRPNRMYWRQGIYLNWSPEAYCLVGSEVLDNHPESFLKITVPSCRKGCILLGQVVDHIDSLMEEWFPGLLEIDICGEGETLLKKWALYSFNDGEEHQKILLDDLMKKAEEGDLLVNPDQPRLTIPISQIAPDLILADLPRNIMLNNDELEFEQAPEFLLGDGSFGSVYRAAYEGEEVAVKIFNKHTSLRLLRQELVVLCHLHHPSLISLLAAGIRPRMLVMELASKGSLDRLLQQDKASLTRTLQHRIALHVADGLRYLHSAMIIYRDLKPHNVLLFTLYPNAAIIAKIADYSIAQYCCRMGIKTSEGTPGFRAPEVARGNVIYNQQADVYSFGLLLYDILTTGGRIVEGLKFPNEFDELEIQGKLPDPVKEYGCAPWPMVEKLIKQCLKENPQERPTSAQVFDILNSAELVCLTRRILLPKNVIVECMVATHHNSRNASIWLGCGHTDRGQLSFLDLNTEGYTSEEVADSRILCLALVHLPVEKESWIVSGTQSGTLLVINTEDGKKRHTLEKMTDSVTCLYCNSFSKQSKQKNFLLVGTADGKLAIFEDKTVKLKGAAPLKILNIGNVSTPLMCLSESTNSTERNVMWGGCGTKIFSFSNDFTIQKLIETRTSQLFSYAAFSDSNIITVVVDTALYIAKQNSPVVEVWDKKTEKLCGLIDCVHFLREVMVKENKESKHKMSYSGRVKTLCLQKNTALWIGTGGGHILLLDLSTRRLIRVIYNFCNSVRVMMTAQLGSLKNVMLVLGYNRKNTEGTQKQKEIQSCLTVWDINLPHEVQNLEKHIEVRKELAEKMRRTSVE

In the case of `COc1cc(S(=O)(=O)N2CCC(N3CCOCC3)CC2)ccc1Nc1cc(NC2CCCC2)c2c(C#N)c[nH]c2n1` [Example 136, 4-(cyclopentylamino)-6-((2-methoxy-4-((4-morpholinopiperidin-1-yl)sulfonyl)phenyl)amino)-1H-pyrrolo[2,3-b]pyridine-3-carbonitrile], the figures for the pIC50 in experiment [1], in experiment [2] and in experiment [3] were 6.00 to 6.52, 6.00 to 6.52 and greater than 7.00, respectively.
`COc1cc(S(=O)(=O)N2CCOCC2)ccc1Nc1cc(NCC(C)C)c2cc[nH]c2n1` [Example 14, N^4-isobutyl-N^6-(2-methoxy-4-(morpholinosulfonyl)phenyl)-1H-pyrrolo[2,3-b]pyridine-4,6-diamine]: the pIC50 in experiment [1], in experiment [2] and in experiment [3] was 6.00 to 6.52 throughout.
As for `CCNc1cc(Nc2ccc(C(=O)N3CCC4(CC3)CC4)c3c2OCC3)nc2[nH]cc(C(F)(F)F)c12` [Example 256, (7-((4-(ethylamino)-3-(trifluoromethyl)-1H-pyrrolo[2,3-b]pyridin-6-yl)amino)-2,3-dihydrobenzofuran-4-yl)(6-azaspiro[2.5]octan-6-yl)methanone], the values for the pIC50 in experiment [1], in experiment [2] and in experiment [3] were 6.52 to 7.00, 6.00 to 6.52 and 6.00 to 6.52, respectively.
As to `COc1cc(S(C)(=O)=O)ccc1Nc1cc(NC2CCCCC2)c2cc[nH]c2n1` [Example 30, N^4-cyclohexyl-N^6-(2-methoxy-4-(methylsulfonyl)phenyl)-1H-pyrrolo[2,3-b]pyridine-4,6-diamine], the pIC50 in experiment [1], in experiment [2] and in experiment [3] was 6.00 to 6.52 throughout.
Regarding `C=CCNc1cc(Nc2ccc(C(=O)N3CC[C@@H](N4CCOCC4)C3)c3c2OCC3)nc2[nH]cc(C(F)(F)F)c12` [Example 261, (R)-(7-((4-(allylamino)-3-(trifluoromethyl)-1H-pyrrolo[2,3-b]pyridin-6-yl)amino)-2,3-dihydrobenzofuran-4-yl)(3-morpholinopyrrolidin-1-yl)methanone], the results for the pIC50 in experiment [1], in experiment [2] and in experiment [3] were greater than 7.00, 6.52 to 7.00 and greater than 7.00, respectively.
As to `C=CCN1CCN(C(=O)c2ccc(Nc3cc(NCC)c4c(C(F)(F)F)c[nH]c4n3)c3c2CCO3)CC1` [Example 252, (4-allylpiperazin-1-yl)(7-((4-(ethylamino)-3-(trifluoromethyl)-1H-pyrrolo[2,3-b]pyridin-6-yl)amino)-2,3-dihydrobenzofuran-4-yl)methanone], the negative logarithm of the IC50 (pIC50) in experiment [1], in experiment [2] and in experiment [3] was greater than 7.00 in each case.
Take `COc1cc(S(=O)(=O)N2CCOCC2)ccc1Nc1cc(NCCS(C)(=O)=O)c2cc[nH]c2n1` [Example 17, N^6-(2-methoxy-4-(morpholinosulfonyl)phenyl)-N^4-(2-(methylsulfonyl)ethyl)-1H-pyrrolo[2,3-b]pyridine-4,6-diamine]: the pIC50 in experiment [1], in experiment [2] and in experiment [3] was 6.00 to 6.52 each time.
For `COc1cc(S(C)(=O)=O)ccc1Nc1cc(NCCS(C)(=O)=O)c2c(Cl)c[nH]c2n1` [Example 88, 3-chloro-N^6-(2-methoxy-4-(methylsulfonyl)phenyl)-N^4-(2-(methylsulfonyl)ethyl)-1H-pyrrolo[2,3-b]pyridine-4,6-diamine], the pIC50 in experiment [1], in experiment [2] and in experiment [3] was 6.00 to 6.52 throughout.
With `C=CCNc1cc(Nc2ccc(C(=O)N3CC[C@H](N4CCOCC4)C3)c3c2OCC3)nc2[nH]cc(C(F)(F)F)c12` [Example 262, (S)-(7-((4-(allylamino)-3-(trifluoromethyl)-1H-pyrrolo[2,3-b]pyridin-6-yl)amino)-2,3-dihydrobenzofuran-4-yl)(3-morpholinopyrrolidin-1-yl)methanone], the figures for the pIC50 in experiment [1], in experiment [2] and in experiment [3] were greater than 7.00, 6.52 to 7.00 and greater than 7.00, respectively.
As for `COc1cc(S(=O)(=O)N2CCC(N3CCOCC3)CC2)ccc1Nc1cc(NCC(C)C)c2cc[nH]c2n1` [Example 21, N^4-isobutyl-N^6-(2-methoxy-4-((4-morpholinopiperidin-1-yl)sulfonyl)phenyl)-1H-pyrrolo[2,3-b]pyridine-4,6-diamine], the pIC50 in experiment [1] was 6.00 to 6.52; in experiment [2] it was 6.00 to 6.52; in experiment [3], greater than 7.00.
On to `CCNc1cc(Nc2ccc(S(=O)(=O)N3CCC(N4CCOCC4)CC3)cc2OC)nc2[nH]cc(Cl)c12` [Example 74, 3-chloro-N^4-ethyl-N^6-(2-methoxy-4-((morpholinopiperidin-1-yl)sulfonyl)phenyl)-1H-pyrrolo[2,3-b]pyridine-4,6-diamine], for which the pIC50 is 6.00 to 6.52 in experiment [1], 6.00 to 6.52 in experiment [2] and 6.52 to 7.00 in experiment [3].
With `CC(C)CNc1cc(Nc2ccc(C(=O)N3CCOCC3)c3c2OCCO3)nc2[nH]ccc12` [Example 6, (8-((4-(isobutylamino)-1H-pyrrolo[2,3-b]pyridin-6-yl)amino)-2,3-dihydrobenzo [b] [1,4]dioxin-5-yl)(morpholino) methanone], the pIC50 is 6.00 to 6.52 in experiment [1], 6.00 to 6.52 in experiment [2] and greater than 7.00 in experiment [3].
As to `CCNc1cc(Nc2ccc(P3(=O)CCN(Cc4ccc(OC)cc4OC)CC3)cn2)nc2[nH]cc(C(F)(F)F)c12` [Example 267, 1-(2,4-dimethoxybenzy 1)-4-(6-((4-(ethylamino)-3-(trifluoromethyl)-1H-pyrrolo[2,3-b]pyridin-6-yl)amino)pyridin-3-yl)-1,4-azaphosphinane 4-oxide], the pIC50 in experiment [1], in experiment [2] and in experiment [3] was greater than 7.00 each time.
Turning to `COc1cc(S(=O)(=O)N2CCC(N3CCOCC3)CC2)ccc1Nc1cc(NC2CCCCC2)c2cc[nH]c2n1` [Example 23, N^4-cyclohexyl-N^6-(2-methoxy-4-((4-morpholinopiperidin-1-yl)sulfonyl)phenyl)-1H-pyrrolo[2,3-b]pyridine-4,6-diamine], the pIC50 in experiment [1], in experiment [2] and in experiment [3] was 6.00 to 6.52 in each case.
With `COc1cc(S(C)(=O)=O)ccc1Nc1cc(NC2CC2)c2cc[nH]c2n1` [Example 1, N^4-cyclopropyl-N^6-(2-methoxy-4-(methylsulfonyl)phenyl)-1H-pyrrolo[2,3-b]pyridine-4,6-diamine], the pIC50 in experiment [1], in experiment [2] and in experiment [3] was 6.00 to 6.52 throughout.
As to `COc1cc(S(=O)(=O)N2CCOCC2)ccc1Nc1cc(NCCS(C)(=O)=O)c2c(Cl)c[nH]c2n1` [Example 72, 3-chloro-N^6-(2-methoxy-4-(morpholinosulfonyl)phenyl)-N^4-(2-(methylsulfonyl)ethyl)-1H-pyrrolo[2,3-b]pyridine-4,6-diamine], the pIC50 in experiment [1], in experiment [2] and in experiment [3] was 6.00 to 6.52 throughout.
For `CS(=O)(=O)CCNc1cc(Nc2ccc(C(=O)N3CCOCC3)c3c2OCCO3)nc2[nH]ccc12` [Example 9, (8-((4-((2-(methylsulfonyl)ethyl)amino)-1H-pyrrolo[2,3-b]pyridin-6-yl)amino)-2,3-dihydrobenzo[b] [1,4]dioxin-5-yl)(morpholino) methanone], the pIC50 in experiment [1] is 6.00 to 6.52; in experiment [2], 6.00 to 6.52; in experiment [3] it was greater than 7.00.

Usually pIC50 stands for the IC50 on a negative log10 scale, so that one unit is a factor of ten.
